Results reported in patent publication US7799346B2, “Method of treatment directed to agent retention in biological tissues” (Advanced Cardiovascular Systems, Inc., priority 1999, dated 2010).

What was measured:
[1] = cited from earlier work; for pKa NH3: aminium group NH3+; for pKa CO2H: carboxyl group
[2] = In-vitro agent retention in perfused excised vessel, fluorescent intensity of tissue sections; format: in vitro ADME, porcine
Excerpt: The target tissue is a live excised porcine carotid. The tissue sample is perfused with buffered saline of Kerbs-henseleit Buffer (Sigma Catalog #K3753) at physiological temperature and pressure. Thereafter, the excised vessels are received in buffered saline solution. The artery segments are sutured to tubing using plastic nipple adapters and loaded into a perfusion chamber. The segments are stretched to their original lengths. In the perfusion chamber, the vessels are allowed to equilibrate for 10 minutes at 37° C. the hydrostatic pressure head above the chamber is about 100 cm.
A microporous balloon catheter is inserted through the rotating hemostatic valve (RHV) and secured. The agent used is […]. The agent is delivered through the catheter at 3.5 atm pressure for 2 minutes in both control and test samples. The amount of agent delivered is about 3 ml. Immediately following agent introduction, a barrier of Poly(amine) Barrier is delivered through the catheter in only the test samples for about 2 minutes. The total amount of barrier introduced is about 3 ml.
The test and control vessels are flushed with the buffer solution for about 15 minutes. The proximal and distal positions of the vessels are marked and the vessels are removed from the perfusion chamber and placed into a bath containing liquid nitrogen. The vessels are mounted in paraffin and sliced in 10 micron thin sections at the proximal, mid and distal portions.
The slides are observed using a fluorescent microscope. The fluorescent intensities of the sections are recorded, where fluorescence represents the presence of agent in the tissue. The resulting intensities over the length of the tissue sections are represented in the graphs in FIG. 5A showing the proximal section and FIG. 5B showing the mid section. […] The average intensity of agent in the test sample is about 1083, whereas the control intensity is about 749. Thus, a 44% increase in agent occurs with the use of the barrier. […]

Compound: O=C(O)[C@@H]1C[C@@H](O)CN1 [Hydroxyproline]
- pKa NH3 [1]: 9.7
- pKa CO2H [1]: 1.9

Compound: N[C@@H](CSSC[C@H](N)C(=O)O)C(=O)O [Cystine]
- pKa NH3 [1]: 7.9
- pKa CO2H [1]: 1.6

Compound: cascade blue
- fluorescent intensity of agent in tissue section, Distal [2]: 747
- fluorescent intensity of agent in tissue section, Mid [2]: 831
- fluorescent intensity of agent in tissue section, Proximal [2]: 669

Compound: CSCC[C@H](N)C(=O)O [Methionine]
- pKa NH3 [1]: 9.9
